Data taken from patent US9802928B2 (Merck Sharp & Dohme Corp., priority 2013, dated 2017).

Tests used:
[1] = target: soluble human BACE1 catalytic domain (Homo sapiens (Human), UniProt P56817); assay: BACE1 HTRF FRET Assay; format: biochemical; details: Ki calculated from IC50 using the Cheng-Prusoff equation; QSY7-APPswe-Eu substrate, pH 5.0
Source text: Na^+-Acetate pH 5.0; 1% Brij-35; Glycerol; Dimethyl Sulfoxide (DMSO); Recombinant human soluble BACE1 catalytic domain (>95% pure); APP Swedish mutant peptide substrate (QSY7-APP^swe-Eu): QSY7-[…]-Europium-amide.
A homogeneous time-resolved FRET assay can be used to determine IC50 values for inhibitors of the soluble human BACE1 catalytic domain. This assay monitors the increase of 620 nm fluorescence that resulted from BACE1 cleavage of an APPswedish APP^swe mutant peptide FRET substrate (QSY7-[…]-Europium-amide). This substrate contains an N-terminal QSY7 moiety that serves as a quencher of the C-terminal Europium fluorophore (620 nm Em). In the absence of enzyme activity, 620 nm fluorescence is low in the assay and increased linearly over 3 hours in the presence of uninhibited BACE1 enzyme Inhibition of BACE1 cleavage of the QSY7-APP^swe-Eu substrate by inhibitors is manifested as a suppression of 620 nm fluorescence.
Varying concentrations of inhibitors at 3× the final desired concentration in a volume of 10 ul are preincubated with purified human BACE1 catalytic domain (3 nM in 10 μl) for 30 minutes at 30° C. in reaction buffer containing 20 mM Na-Acetate pH 5.0, 10% glycerol, 0.1% Brij-35 and 7.5% DSMO. Reactions are initiated by addition of 10 μl of 600 nM QSY7-APP^swe-Eu substrate (200 nM final) to give a final reaction volume of 30 μl in a 384 well Nunc HTRF plate. The reactions are incubated at 30° C. for 1.5 hours. The 620 nm fluorescence is then read on a Rubystar HTRF plate reader (BMG Labtechnologies) using a 50 millisecond delay followed by a 400 millisecond acquisition time window. Inhibitor IC50 values are derived from non-linear regression analysis of concentration response curves. Ki values are then calculated from IC50 values using the Cheng-Prusoff equation using a previously determined […] of 8 μM for the QSY7-APP^swe-Eu substrate at BACE1.

[2] = target: purified human autoBACE-2 (Homo sapiens (Human), UniProt Q9Y5Z0); assay: BACE-2 Assay (BACE-HTRF assay); format: biochemical; details: Ki calculated from IC50 using the Cheng-Prusoff equation; QSY7-EISEVNLDAEFC-Eu-amide substrate, pH 5.0; read-out: BACE2 Ki
Experimental: Inhibitor IC50s at purified human autoBACE-2 are determined in a time-resolved endpoint proteolysis assay that measures hydrolysis of the QSY7-EISEVNLDAEFC-Eu-amide FRET peptide substrate (BACE-HTRF assay). BACE-mediated hydrolysis of this peptide results in an increase in relative fluorescence (RFU) at 620 nm after excitation with 320 nm light. Inhibitor compounds, prepared at 3× the desired final concentration in 1×BACE assay buffer (20 mM sodium acetate pH 5.0, 10% glycerol, 0.1% Brij-35) supplemented with 7.5% DMSO are pre-incubated with an equal volume of autoBACE-2 enzyme diluted in 1×BACE assay buffer (final enzyme concentration 1 nM) in black 384-well NUNC plates for 30 minutes at 30° C. The assay is initiated by addition of an equal volume of the QSY7-EISEVNLDAEFC-Eu-amide substrate (200 nM final concentration, Km=8 μM […] for autoBACE-2) prepared in 1×BACE assay buffer supplemented with 7.5% DMSO and incubated for 90 minutes at 30° C. DMSO is present at 5% final concentration in the assay. Following laser excitation of sample wells at 320 nm, the fluorescence signal at 620 nm is collected for 400 ms following a 50 μs delay on a RUBYstar HTRF plate reader (BMG Labtechnologies). Raw RFU data is normalized to maximum (1.0 nM BACE/DMSO) and minimum (no enzyme/DMSO) RFU values. IC50s are determined by nonlinear regression analysis (sigmoidal dose response, variable slope) of percent inhibition data with minimum and maximum values set to 0 and 100 percent respectively. Similar IC50s are obtained when using raw RFU data. The Ki values are calculated from the IC50 using the Cheng-Prusoff equation.

Chain of soluble human BACE1 catalytic domain (P56817 75-416): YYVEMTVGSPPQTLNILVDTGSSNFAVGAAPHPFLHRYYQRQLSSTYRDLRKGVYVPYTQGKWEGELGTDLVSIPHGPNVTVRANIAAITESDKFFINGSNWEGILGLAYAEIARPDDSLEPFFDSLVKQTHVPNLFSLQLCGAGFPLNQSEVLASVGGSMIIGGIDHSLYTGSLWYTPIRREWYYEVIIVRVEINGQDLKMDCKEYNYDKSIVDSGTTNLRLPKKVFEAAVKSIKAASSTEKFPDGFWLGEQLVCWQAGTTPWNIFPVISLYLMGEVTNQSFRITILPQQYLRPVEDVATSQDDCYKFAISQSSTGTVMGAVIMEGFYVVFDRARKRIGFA
Chain of purified human autoBACE-2 (Q9Y5Z0 63-473 limits assumed): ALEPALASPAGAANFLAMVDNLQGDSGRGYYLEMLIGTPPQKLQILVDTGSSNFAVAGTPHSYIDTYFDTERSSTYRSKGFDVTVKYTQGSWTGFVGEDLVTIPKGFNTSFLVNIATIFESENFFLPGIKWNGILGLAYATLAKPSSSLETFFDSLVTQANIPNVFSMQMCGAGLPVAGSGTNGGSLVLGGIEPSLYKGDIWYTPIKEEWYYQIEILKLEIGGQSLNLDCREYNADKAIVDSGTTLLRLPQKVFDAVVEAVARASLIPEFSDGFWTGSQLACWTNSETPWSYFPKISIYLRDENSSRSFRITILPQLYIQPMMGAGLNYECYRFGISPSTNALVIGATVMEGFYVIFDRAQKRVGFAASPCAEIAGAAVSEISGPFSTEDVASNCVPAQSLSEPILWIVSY

Row | Ki [1] | Ki [2] | Structure (SMILES)
1 | 620 nM | 220 nM | Cc1cc(C(=O)Nc2ccc(F)c([C@@]3(C)NC(=N)N(C)S(=O)(=O)C34CC4)c2)no1 [Example 1n, N-{4-fluoro-3-[(8R)-6-imino-5,8-dimethyl-4,4-dioxido-4-thia-5,7-diazaspiro[2.5]oct-8-yl]phenyl}-5-methylisoxazole-3-carboxamide]
2 | 31 nM | 8 nM | Cc1nc(C(=O)Nc2ccc(F)c([C@@]3(C)NC(=N)N(C)S(=O)(=O)C34CC4)c2)no1 [Example 1h, N-{4-fluoro-3-[(8R)-6-imino-5,8-dimethyl-4,4-dioxido-4-thia-5,7-diazaspiro[2.5]oct-8-yl]phenyl}-5-methyl-1,2,4-oxadiazole-3-carboxamide]
3 | 8 nM | 46 nM | CN1C(=N)N[C@](C)(c2cc(NC(=O)c3ccc(OC(F)F)cn3)ccc2F)C2(CC2)S1(=O)=O [Example 1s, 5-(difluoromethoxy)-N-{4-fluoro-3-[(8R)-6-imino-5,8-dimethyl-4,4-dioxido-4-thia-5,7-diazaspiro[2.5]oct-8-yl]phenyl}pyridine-2-carboxamide]
4 | 20 nM | 56 nM | COc1cnc(C(=O)Nc2ccc(F)c([C@@]3(C)NC(=N)N(C)S(=O)(=O)C34CC4)c2)cn1 [Example 1e]
5 | 6 nM | 3 nM | CN1C(=N)N[C@](C)(c2cc(NC(=O)c3ncc(Cl)cc3F)ccc2F)C2(CC2)S1(=O)=O [Example 1o, 5-chloro-3-fluoro-N-{4-fluoro-3-[(8R)-6-imino-5,8-dimethyl-4,4-dioxido-4-thia-5,7-diazaspiro[2.5]oct-8-yl]phenyl}pyridine-2-carboxamide]
6 | 3 nM | 17 nM | CN1C(=N)N[C@](C)(c2cc(NC(=O)c3ccc(C#N)cn3)ccc2F)C2(CC2)S1(=O)=O [Example 1g, 5-cyano-N-{4-fluoro-3-[(8R)-6-imino-5,8-dimethyl-4,4-dioxido-4-thia-5,7-diazaspiro[2.5]oct-8-yl]phenyl}pyridine-2-carboxamide]
7 | 4940 nM | 3250 nM | CN1C(=N)N[C@](C)(c2cc(NC(=O)c3cn(C)nc3C(F)(F)F)ccc2F)C2(CC2)S1(=O)=O [Example 1b, N-{4-fluoro-3-[(8R)-6-imino-5,8-dimethyl-4,4-dioxido-4-thia-5,7-diazaspiro[2.5]oct-8-yl]phenyl}-1-methyl-3-(trifluoromethyl)-1H-pyrazole-4-carboxamide]
8 | 18 nM | 17 nM | COc1ccc(C(=O)Nc2ccc(F)c([C@@]3(C)NC(=N)N(C)S(=O)(=O)C34CC4)c2)nc1 [Example 1a, N-{4-fluoro-3-[(8R)-6-imino-5,8-dimethyl-4,4-dioxido-4-thia-5,7-diazaspiro[2.5]oct-8-yl]phenyl}-5-methoxypyridine-2-carboxamide]
9 | 16 nM | 8 nM | CN1C(=N)N[C@](C)(c2cc(NC(=O)c3ccc(F)cn3)ccc2F)C2(CC2)S1(=O)=O [Example 1r, 5-fluoro-N-{4-fluoro-3-[(8R)-6-imino-5,8-dimethyl-4,4-dioxido-4-thia-5,7-diazaspiro[2.5]oct-8-yl]phenyl}pyridine-2-carboxamide]
10 | 5 nM | 2 nM | CN1C(=N)N[C@](C)(c2cc(NC(=O)c3ccc(Cl)cn3)ccc2F)C2(CC2)S1(=O)=O [Example 2, 5-chloro-N-{4-fluoro-3-[(8R)-6-imino-5,8-dimethyl-4,4-dioxido-4-thia-5,7-diazaspiro[2.5]oct-8-yl]phenyl}pyridine-2-carboxamide]
11 | 6 nM | 159 nM | CN1C(=N)N[C@](C)(c2cc(NC(=O)c3cnc(OCC(F)(F)F)cn3)ccc2F)C2(CC2)S1(=O)=O [Example 1w, N-{4-fluoro-3-[(8R)-6-imino-5,8-dimethyl-4,4-dioxido-4-thia-5,7-diazaspiro[2.5]oct-8-yl]phenyl}-5-(2,2,2-trifluoroethoxy)pyrazine-2-carboxamide]
